In patent US8158088B2, “Extractant compositions for co-extracting cesium and strontium, a method of separating cesium and strontium from an aqueous feed, and calixarene compounds” (Battelle Energy Alliance, LLC, priority 2008, dated 2012):
“And” between values parts separate entries of the source, which are not always exact repeats. Equal values may be shown once.

How the values were obtained:
Assay type in all cases: physicochemical
[1] = Cesium distribution ratio (DCs), equilibrium batch contact of mixed extractant solvent with nitric acid feed; settings: for DCs: 1.5 HNO3
From the text: The distribution of cesium and strontium between the first organic phase (the mixed extractant solvent including the dialkyloxycalix[4]arenebenzocrown-6 compound) and the first aqueous phase (aqueous feed) may be determined by conventional techniques. The distribution ratio for strontium (“DSr”) may be calculated as the ratio of organic phase activity to the aqueous phase activity at equilibrium. High values for the DSr indicate that the strontium is present predominantly in the organic phase while low values for the DSr indicate that the strontium is present predominantly in the aqueous phase. Similarly, the distribution ratio for cesium (“DCs”) may be calculated as the ratio of organic phase activity to the aqueous phase activity at equilibrium. High values for the DCs indicate that the cesium is present predominantly in the organic phase while low values for the DCs indicate that the cesium is present predominantly in the aqueous phase.
Distribution ratios (DM=[M]org/[M]aq) were measured by equilibrium batch contacts between the organic and aqueous phases at an organic-to-aqueous phase ratio (O/A) of unity (O/A=1). All distribution ratio measurements were conducted in a temperature controlled water bath at 25±1° C. The aqueous phase was of the appropriate HNO3 concentration, to which trace quantities (typically, less than 10^−7 M each) of the major radionuclides of interest (^137Cs, ^85Sr, ^154Eu, or ^241Am) were added. The organic and aqueous phases were contacted by vortex mixing for 1 minute. All batch contact experiments were performed at ambient temperature (from approximately 20° C. to approximately 25° C.) unless otherwise noted. Following extraction, the samples were centrifuged for 1 minute and the organic and aqueous phases separated by pipet or centrifugation. The distribution ratios (DSr, or DCs) were calculated as the ratio of the appropriate specific activities in the organic and aqueous phases as determined by γ-ray counting (gamma spectroscopy). The counting time was selected to provide less than approximately 1% statistical uncertainty.
(MC-8, MC-8B, MC-10, MC-10B, MC-12, or MC-12B), 0.075 M DtBuCH18C6, 0.75 M Cs-7SB modifier, and 0.003 M TOA in ISOPAR® L were evaluated for their respective abilities to simultaneously extract cesium and strontium from the aqueous feed simulant composition described in Table 2. The cesium and strontium distribution ratios of the mixed extraction solvents were compared to those of the FPEX I process solvent. The cesium extraction performance and strontium extraction performance of each of the mixed extractant solvents was determined using the batch contact flowsheet presented in FIG. 1, where “E1,” “E2,” and “E3” refer to three forward extraction acts: a first extraction act, a second extraction act, and a third extraction act, respectively, and “St1” and “St2” refer to two backward extraction acts: a first strip act and a second strip act, respectively. […] The aqueous feed 2 and the mixed extractant solvent 4 were combined in a vessel 6 to conduct the extraction. Two phases were formed during the extraction: the first organic phase and the first aqueous phase, with the cesium and strontium substantially distributed in the first organic phase.
The cesium and strontium distribution ratios for the mixed extractant solvents 4 were calculated for the first organic phase and are reported in Tables 3 and 4, respectively, as E1, along with the cesium and strontium distribution ratios for the FPEX I process solvent. The cesium and strontium were stripped from the first (and subsequent) organic phase to recover these radionuclides. For the strips or backward extractions, the first (and subsequent) organic phase was contacted with dilute acidic solution 8, which was 0.01 M HNO3. […]

[2] = Strontium distribution ratio (DSr), equilibrium batch contact of mixed extractant solvent with nitric acid feed; settings: for DSr: 1.5 HNO3
[3] = Solvent stability: cesium distribution ratios as a function of contact time with 1.5 M HNO3
Experimental: (§1) The stability of the mixed extractant solvents prepared using dialkyloxycalix[4]arenebenzocrown-6 compounds (MC-8, MC-8B, MC-10, MC-10B, MC-12, or MC-12B) relative to BOBCalixC6 in the FPEX I process solvent was determined. Samples were prepared using each of the dialkyloxycalix[4]arenebenzocrown-6 compounds and contacted with 1.5 M HNO3. The samples included 0.007 M of the respective dialkyloxycalix[4]arenebenzo-crown-6 compound (MC-8, MC-8B, MC-10, MC-10B, MC-12, or MC-12B), 0.075 M DtBuCH18C6, 0.75 M Cs-7SB modifier, and 0.003 M TOA in ISOPAR® L. The stability of the dialkyloxycalix[4]arene-benzocrown-6 based solvents was evaluated by measuring the cesium and strontium distribution ratios as a function of contact time. These cesium and strontium distribution ratios for the mixed extractant solvents are presented in Table 9 and Table 10, respectively, along with the cesium and strontium distribution ratios for the FPEX I process solvent. The symbol “-” is used in Tables 9 and 10 to indicate no data was collected.
(§2) This degradation is likely due to chemical attack or nitration of the BOBCalixC6 in the FPEX I process solvent. […] However, it is difficult to compare the relative extents of degradation. In order to compare the different extractants, the distribution ratio data presented in Tables 9 and 10 were normalized to the values obtained at t=0 days contact. The normalized cesium and strontium distribution ratios for the FPEX I process solvent and the mixed extractant solvents as a function of contact time are presented in FIGS. 2 and 3, respectively.

[4] = Solvent stability: strontium distribution ratios as a function of contact time with 1.5 M HNO3
Experimental: as §1, §2

[5] = Third phase formation on contact with nitric acid
[6] = [DtBuCH18C6]/[MC-10B] 50/10 mM, 1.5 M Cs-5SB
[7] = [DtBuCH18C6]/[MC-10B] 60/10 mM, 1.5 M Cs-5SB
[8] = [DtBuCH18C6]/[MC-10B] 60/15 mM, 1.5 M Cs-5SB
[9] = [DtBuCH18C6]/[MC-10B] 90/20 mM, 1.5 M Cs-5SB in ISOPAR L, feed 0.004 M cesium nitrate, 0.002 M strontium nitrate
[10] = first forward extraction, 1.5 M HNO3 feed simulant, 25 °C, 0.007 M calixarene, 0.075 M DtBuCH18C6, 0.75 M Cs-7SB, 0.003 M TOA in ISOPAR L
[11] = first strip with 0.01 M HNO3, 35 °C, 0.007 M calixarene solvent
[12] = second forward extraction, 1.5 M HNO3 feed, 25 °C, 0.007 M calixarene solvent
[13] = second strip with 0.01 M HNO3, 35 °C, 0.007 M calixarene solvent
[14] = third forward extraction, 1.5 M HNO3 feed, 25 °C, 0.007 M calixarene solvent
[15] = contact time 0 days with 1.5 M HNO3, 0.007 M calixarene, 0.075 M DtBuCH18C6, 0.75 M Cs-7SB, 0.003 M TOA in ISOPAR L
[16] = contact time 34 days with 1.5 M HNO3
[17] = contact time 70 days with 1.5 M HNO3
[18] = contact time 278 days with 1.5 M HNO3

In the case of `CC(C)CCCC(C)CCOc1c2cccc1Cc1cccc3c1OCCOCCOc1ccccc1OCCOCCOc1c(cccc1Cc1cccc(c1OCCC(C)CCCC(C)C)C3)C2` (stereo not shown) [MC-10B, 1,3-alternate-25,27-di(3,7-dimethyloctyl-1-oxy)calix[4]arenebenzocrown-6], the DCs [1, 6] is reported as 2.87 and 2.88, the DCs [1, 7] is reported as 2.77 and 2.81 and the DCs [1, 8] is reported as 4.48 and 4.37. For the same compound, the DCs [1, 9] was 6.11 and 6.36, the “Cesium distribution ratio, contact E1” value [1, 10] was 3.7 and the “Cesium distribution ratio, contact St1” value [1, 11] was 0.5. For the same compound, the “Cesium distribution ratio, contact E2” value [1, 12] was 1.9, the “Cesium distribution ratio, contact St2” value [1, 13] was 0.2 and the “Cesium distribution ratio, contact E3” value [1, 14] was 1.5. The DSr [2, 6] was 4.03 and 4.11, the DSr [2, 7] was 4.83 and 4.90 and the DSr [2, 8] was 4.73 and 4.69. The DSr [2, 9] was 6.90 and 6.94, the “Strontium distribution ratio, contact E1” value [2, 10] was 9.6 and the “Strontium distribution ratio, contact St1” value [2, 11] was 0.06. For the same compound, the “Strontium distribution ratio, contact E2” value [2, 12] was 8.6, the “Strontium distribution ratio, contact St2” value [2, 13] was 0.01 and the “Strontium distribution ratio, contact E3” value [2, 14] was 8.3. For the same compound, the “Cesium distribution ratio as a function of contact time” value [3, 15] was 3.7, the “Cesium distribution ratio as a function of contact time” value [3, 16] was 3.0 and the “Cesium distribution ratio as a function of contact time” value [3, 17] was 3.4. The “Cesium distribution ratio as a function of contact time” value [3, 18] was 2.8, the “Strontium distribution ratio as a function of contact time” value [4, 15] was 9.6 and the “Strontium distribution ratio as a function of contact time” value [4, 16] was 8.5. For the same compound, the “Strontium distribution ratio as a function of contact time” value [4, 17] was 9.5, the “Strontium distribution ratio as a function of contact time” value [4, 18] was 8.0 and the third phase formation ([5]; up to 2 M HNO3, 0.007 M MC-10B, 0.075 M DtBuCH18C6, 0.75 M Cs-7SB in ISOPAR L) was “no formation of third phases was detected”. For the same compound, the third phase formation ([5]; varying MC-10B and DtBuCH18C6 concentrations, 1.5 M Cs-5SB in ISOPAR L, 1.5 HNO3) was “No third phase formation was observed”.
